Where “and” joins values, the source holds several entries; their conditions need not be identical. Equal entries are not always repeated. Inconclusive results and toxic doses are left out.
System: L1210 leukemia ip in BDF1 mice, survival T/C
Test: NCI In Vivo Anticancer Drug Screen. Data for tumor model L1210 Leukemia (intraperitoneal) in B6D2F1 (BDF1) mice
Conditions: endpoint: mean survival time, higher = longer survival
Method in brief: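 Mice bearing the transplanted tumor received compound or vehicle. Survival of the treated group was divided by that of the vehicle-treated control group to give the ratio.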

[1] = dose: 100.0 mg/kg/injection, schedule: Q01DX009 (ip), vehicle: saline with Tween-80
[2] = dose: 100.0 mg/kg/injection, schedule: Q04DX003 (ip), vehicle: saline with Tween-80
[3] = dose: 200.0 mg/kg/injection, schedule: Q01DX009 (ip), vehicle: saline with Tween-80
[4] = dose: 200.0 mg/kg/injection, schedule: Q04DX003 (ip), vehicle: saline with Tween-80
[5] = dose: 400.0 mg/kg/injection, schedule: Q04DX003 (ip), vehicle: saline with Tween-80
[6] = dose: 100.0 mg/kg/injection, schedule: Q01DX001 (ip), vehicle: carboxymethylcellulose (CMC)
[7] = dose: 200.0 mg/kg/injection, schedule: Q01DX001 (ip), vehicle: carboxymethylcellulose (CMC)
[8] = dose: 400.0 mg/kg/injection, schedule: Q01DX001 (ip), vehicle: carboxymethylcellulose (CMC)
[9] = dose: 75.0 mg/kg/injection, schedule: Q01DX001 (ip), vehicle: saline
[10] = dose: 150.0 mg/kg/injection, schedule: Q01DX001 (ip), vehicle: saline
[11] = dose: 100.0 mg/kg/injection, schedule: Q01DX009 (ip), vehicle: Klucel (hydroxypropylcellulose) (HPC)
[12] = dose: 100.0 mg/kg/injection, schedule: Q04DX003 (ip), vehicle: Klucel (hydroxypropylcellulose) (HPC)
[13] = dose: 200.0 mg/kg/injection, schedule: Q01DX009 (ip), vehicle: Klucel (hydroxypropylcellulose) (HPC)
[14] = dose: 200.0 mg/kg/injection, schedule: Q04DX003 (ip), vehicle: Klucel (hydroxypropylcellulose) (HPC)
[15] = dose: 400.0 mg/kg/injection, schedule: Q01DX009 (ip), vehicle: Klucel (hydroxypropylcellulose) (HPC)
[16] = dose: 400.0 mg/kg/injection, schedule: Q04DX003 (ip), vehicle: Klucel (hydroxypropylcellulose) (HPC)

For `CCN(C(=O)CC(C)=O)c1ccccc1`, the T/C [1] was 91 % of control, the T/C [2] was 98 % of control and the T/C [3] was 93 % of control. For the same compound, the T/C [4] was 98 % of control, the T/C (dose: 400.0 mg/kg/injection, schedule: Q01DX009 (ip), vehicle: saline with Tween-80) was 94 % of control and the T/C [5] was 98 % of control.

With `Cn1c(/C=C/c2ccccc2)c([N+](=O)[O-])c(=O)n(C)c1=O` the T/C (dose: 50.0 mg/kg/injection, schedule: Q01DX009 (ip), vehicle: saline with Tween-80) was 106 % of control, the T/C [1] was 98 % of control and the T/C [3] was 98 % of control.

For `O=C1NC2(CCCCCC2)C(=O)N1CN1CCOCC1`, the T/C (dose: 100.0 mg/kg/injection, schedule: Q01DX001 (ip), vehicle: Klucel (hydroxypropylcellulose) (HPC)) was 98 % of control, the T/C (dose: 200.0 mg/kg/injection, schedule: Q01DX001 (ip), vehicle: Klucel (hydroxypropylcellulose) (HPC)) was 101 % of control and the T/C (dose: 400.0 mg/kg/injection, schedule: Q01DX001 (ip), vehicle: Klucel (hydroxypropylcellulose) (HPC)) was 104 % of control.

In the case of `CC12CCC(=O)C=C1CCC1C2C(O)CC2(C)C1CCC2(O)C(=O)CSc1ncnc2nc[nH]c12` (stereo not given), the T/C (dose: 50.0 mg/kg/injection, schedule: Q01DX001 (sc), vehicle: steriod suspending solution) is reported as 96 % of control, the T/C (dose: 100.0 mg/kg/injection, schedule: Q01DX001 (sc), vehicle: steriod suspending solution) is reported as 94 % of control and 108 % of control and the T/C (dose: 200.0 mg/kg/injection, schedule: Q01DX001 (sc), vehicle: steriod suspending solution) is reported as 105 % of control and 108 % of control. For the same compound, the T/C (dose: 400.0 mg/kg/injection, schedule: Q01DX001 (sc), vehicle: steriod suspending solution) was 97 % of control and 102 % of control.

`COc1ccc(C(=O)c2cc(OC)c(OC)c(OC)c2)cc1OC` was tested, and the T/C (dose: 50.0 mg/kg/injection, schedule: Q04DX003 (ip), vehicle: saline) was 98 % of control, the T/C [6] was 102 % of control and the T/C (dose: 100.0 mg/kg/injection, schedule: Q01DX009 (ip), vehicle: saline) was 108 % of control. The T/C (dose: 100.0 mg/kg/injection, schedule: Q04DX003 (ip), vehicle: saline) was 100 % of control, the T/C [7] was 103 % of control and the T/C (dose: 200.0 mg/kg/injection, schedule: Q01DX009 (ip), vehicle: saline) was 112 % of control. For the same compound, the T/C (dose: 200.0 mg/kg/injection, schedule: Q04DX003 (ip), vehicle: saline) was 104 % of control, the T/C [8] was 103 % of control and the T/C (dose: 400.0 mg/kg/injection, schedule: Q01DX009 (ip), vehicle: saline) was 101 % of control. For the same compound, the T/C (dose: 400.0 mg/kg/injection, schedule: Q04DX003 (ip), vehicle: saline) was 96 % of control.

`Cc1cc(C#N)cc(C)c1N` was tested, and the T/C (dose: 75.0 mg/kg/injection, schedule: Q01DX001 (ip), vehicle: other) was 100 % of control, the T/C (dose: 150.0 mg/kg/injection, schedule: Q01DX001 (ip), vehicle: other) was 95 % of control and the T/C (dose: 300.0 mg/kg/injection, schedule: Q01DX001 (ip), vehicle: other) was 105 % of control.

`CCOC(=O)c1cc(C(=O)OCC)c(=O)oc1OCC` was tested, and the T/C (dose: 18.75 mg/kg/injection, schedule: Q01DX009 (ip), vehicle: acetone) was 105 % of control, the T/C (dose: 37.5 mg/kg/injection, schedule: Q01DX009 (ip), vehicle: acetone) was 87 % of control and the T/C (dose: 37.5 mg/kg/injection, schedule: Q04DX003 (ip), vehicle: saline) was 88 % of control. The T/C [9] was 110 % of control, the T/C (dose: 75.0 mg/kg/injection, schedule: Q01DX009 (ip), vehicle: acetone) was 87 % of control and the T/C (dose: 75.0 mg/kg/injection, schedule: Q04DX003 (ip), vehicle: saline) was 90 % of control. For the same compound, the T/C [10] was 97 % of control and the T/C (dose: 150.0 mg/kg/injection, schedule: Q04DX003 (ip), vehicle: saline) was 93 % of control.

For `CC(C)(C)CC(C)(C)c1ccc(OCCOC(=O)c2ccccc2C(=O)O)cc1`, the T/C (dose: 25.0 mg/kg/injection, schedule: Q01DX009 (ip), vehicle: Klucel (hydroxypropylcellulose) (HPC)) was 97 % of control, the T/C (dose: 50.0 mg/kg/injection, schedule: Q01DX009 (ip), vehicle: Klucel (hydroxypropylcellulose) (HPC)) was 105 % of control and the T/C [11] was 94 % of control.

In the case of `CCOc1ccc2nc(/C=C\c3cc4c5c(c3)CCCN5CCC4)ccc2c1`, the T/C [11] is reported as 87 % of control, the T/C [12] is reported as 95 % of control and the T/C [13] is reported as 97 % of control. The T/C [14] was 98 % of control, the T/C [15] was 97 % of control and the T/C [16] was 98 % of control.

For `NC(=O)c1ccccc1NC(=O)Nc1cc(C(F)(F)F)ccc1Cl`, the T/C [11] was 96 % of control, the T/C [13] was 86 % of control and the T/C [15] was 97 % of control.

With `O=C(N/N=C/c1ccc(-c2ccccc2)cc1)Nc1ccccc1` the T/C [1] was 92 % of control, the T/C [2] was 92 % of control and the T/C [3] was 96 % of control. For the same compound, the T/C [4] was 100 % of control and the T/C [5] was 93 % of control.

For `C/C(=N\Nc1cccc(N)c1)c1ccccc1`, the T/C (dose: 25.6 mg/kg/injection, schedule: Q04DX002 (ip), vehicle: saline with Tween-80) was 89 % of control and the T/C (dose: 64.0 mg/kg/injection, schedule: Q04DX002 (ip), vehicle: saline with Tween-80) was 89 % of control.

In the case of `CC1C=C2C(=O)C=C3OCOC34Oc3cc5c(cc3C(C1C)C24)OCO5` (stereo not given), the T/C [12] is reported as 94 % of control, the T/C [14] is reported as 97 % of control and the T/C [16] is reported as 97 % of control.

With `BrC1=C(c2ccccc2)C2CCCCC2C1(Br)c1ccccc1` (stereo not given) the T/C [11] was 103 % of control, the T/C [13] was 105 % of control and the T/C [15] was 114 % of control.

For `Cc1scc[n+]1C`, the T/C [9] was 104 % of control, the T/C [10] was 102 % of control and the T/C (dose: 300.0 mg/kg/injection, schedule: Q01DX001 (ip), vehicle: saline) was 107 % of control.

In the case of `O=S(=O)(N/C(=C(/c1ccccc1)N(c1ccccc1)S(=O)(=O)c1ccccc1)c1ccccc1)c1ccccc1`, the T/C (dose: 75.0 mg/kg/injection, schedule: Q01DX001 (ip), vehicle: Klucel (hydroxypropylcellulose) (HPC)) is reported as 90 % of control, the T/C (dose: 150.0 mg/kg/injection, schedule: Q01DX001 (ip), vehicle: Klucel (hydroxypropylcellulose) (HPC)) is reported as 87 % of control and the T/C (dose: 300.0 mg/kg/injection, schedule: Q01DX001 (ip), vehicle: Klucel (hydroxypropylcellulose) (HPC)) is reported as 90 % of control.

`c1cc[n+]2c(c1)-c1cccc[n+]1CCC2` was tested, and the T/C [6] was 94 % of control, the T/C [7] was 101 % of control and the T/C [8] was 92 % of control.

For `COC(=O)Nc1ccc(C)c(NC(=O)OC)c1`, the T/C [12] was 104 % of control, the T/C [14] was 93 % of control and the T/C [16] was 107 % of control.

With `CCCCCCCCCC(=O)N1CCCCCC1` the T/C (dose: 100.0 mg/kg/injection, schedule: Q04DX002 (ip), vehicle: Klucel (hydroxypropylcellulose) (HPC)) was 98 % of control, the T/C (dose: 200.0 mg/kg/injection, schedule: Q04DX002 (ip), vehicle: Klucel (hydroxypropylcellulose) (HPC)) was 95 % of control and the T/C (dose: 400.0 mg/kg/injection, schedule: Q04DX002 (ip), vehicle: Klucel (hydroxypropylcellulose) (HPC)) was 88 % of control.

With `Cn1c2ccccc2c(=O)c2c(O)cc3c(c21)C=CC(C)(C)O3` the T/C (dose: 50.0 mg/kg/injection, schedule: Q01DX001 (ip), vehicle: carboxymethylcellulose (CMC)) was 98 % of control, the T/C [6] was 90 % of control and the T/C [7] was 88 % of control. For the same compound, the T/C [8] was 88 % of control.

`CCCCCCCCCCCCCCCCNC(=O)c1cc([N+](=O)[O-])ccc1C(=O)O` was tested, and the T/C [12] was 95 % of control, the T/C [14] was 95 % of control and the T/C [16] was 97 % of control.

For `O=NN(CCF)C(=O)NC1CCC(C(=O)O)CC1` (stereo not given), the T/C (dose: 4.0 mg/kg/injection, schedule: Q01DX001 (ip), vehicle: saline with Tween-80) was 105 % of control and 106 % of control, the T/C (dose: 6.0 mg/kg/injection, schedule: Q01DX001 (ip), vehicle: saline with Tween-80) was 108 % of control and the T/C (dose: 9.0 mg/kg/injection, schedule: Q01DX001 (ip), vehicle: saline with Tween-80) was 116 % of control and 119 % of control. For the same compound, the T/C (dose: 13.0 mg/kg/injection, schedule: Q01DX001 (ip), vehicle: saline with Tween-80) was 117 % of control, the T/C (dose: 20.0 mg/kg/injection, schedule: Q01DX001 (ip), vehicle: saline with Tween-80) was 152 % of control and the T/C (dose: 30.0 mg/kg/injection, schedule: Q01DX001 (ip), vehicle: saline with Tween-80) was 263 % of control and 206 % of control. The T/C (dose: 45.0 mg/kg/injection, schedule: Q01DX001 (ip), vehicle: saline with Tween-80) was 306 % of control and 432 % of control and the T/C (dose: 66.0 mg/kg/injection, schedule: Q01DX001 (ip), vehicle: saline with Tween-80) was 500 % of control.

In the case of `CC1C(C)C1(Br)c1ccccc1` (stereo not given), the T/C (dose: 100.0 mg/kg/injection, schedule: Q01DX001 (ip), vehicle: saline) is reported as 91 % of control, the T/C (dose: 200.0 mg/kg/injection, schedule: Q01DX001 (ip), vehicle: saline) is reported as 101 % of control and the T/C (dose: 400.0 mg/kg/injection, schedule: Q01DX001 (ip), vehicle: saline) is reported as 96 % of control.

— PubChem BioAssay AID248 (DTP/NCI, 2004)
